Patent publication US20010055573A1, “Delivery systems for active ingredients including sunscreen actives and methods of making same” (Shamrock Technologies, priority 1999, published 2001)

Experiment: Solubility of the sunscreen active in the preferred non-polar solvents
Type: physicochemical
Details: ethylferulate by itself, without lubricating wax as cosolvent
Excerpt: Thus, this embodiment of the present invention solves a significant problem which the prior art has heretofore been unable to overcome without emulsification, namely, the poor solubility of ethylferulate and other polar solid organic sunscreen actives in non-polar solvents, which causes difficulties in formulating sunscreen products in non-emulsified systems.

solubility in the preferred solvents: not soluble to any significant extent
Compound: CCOC(=O)/C=C/c1ccc(O)c(OC)c1 [ethylferulate, ethyl ester of ferulic acid]
